{"source": "patent US20250381179A1", "about": "“CHROMAN-BASED COMPOUNDS FOR TREATING CANCER” (priority 2024, published 2025)", "assay": "Phase 1 study: safety and tolerability (TEAEs, NCI CTCAE v5.0)", "procedure": "The study employed an open-label, 3+3 design, with the option of adding backfill patients to each cohort cleared and deemed safe. […] Tumor responses were assessed every 2 cycles using RECIST v1.1 criteria. […] The study also involves an ongoing dose escalation study where participants receive 100 mg, 200 mg, 300 mg, 400 mg, and 600 mg once daily (QD) dose levels.\nSafety was assessed through the analysis of the reported incidence of treatment-emergent AEs. Treatment-emergent AEs are those with an onset on or after the initiation of therapy and will be graded according to NCI CTCAE Version 5.0. Other safety endpoints, including laboratory results, vital signs, and ECG findings, were summarized for all patients in the Safety set.", "note": "Entries after “also recorded” stand apart in the source; their conditions may differ.", "data": [{"smiles": "O=C1CC[C@H](N2Cc3cc(N4CCN(CC5CCN(c6ccc([C@@H]7c8ccc(O)cc8OC[C@@H]7c7ccccc7)cc6F)CC5)CC4)ccc3C2=O)C(=O)N1", "note": "[compound (1-g), (S)-3-(5-(4-((1-(2-fluoro-4-((3S,4R)-7-hydroxy-3-phenylchroman-4-yl)phenyl)piperidin-4-yl)methyl)piperazin-1-yl)-1-oxoisoindolin-2-yl)piperidine-2,6-dione]", "values": [{"measurement": "TEAE: Basal Cell Carcinoma", "setting": "Overall (N = 37)", "result": "1 (2.7) n (%)"}, {"measurement": "TEAE: Breast Pain", "setting": "Overall (N = 37)", "result": "1 (2.7) n (%)"}, {"measurement": "TEAE: Confusional State", "setting": "Overall (N = 37)", "result": "1 (2.7) n (%)"}, {"measurement": "TEAE: Constipation", "setting": "Overall (N = 37)", "result": "4 (10.8) n (%)"}, {"measurement": "TEAE: Cough", "setting": "Overall (N = 37)", "result": "1 (2.7) n (%)"}, {"measurement": "TEAE: Covid-19 Pneumonia", "setting": "Overall (N = 37)", "result": "1 (2.7) n (%)"}, {"measurement": "TEAE: Dehydration", "setting": "Overall (N = 37)", "result": "5 (13.5) n (%)"}, {"measurement": "TEAE: Diarrhoea", "setting": "Overall (N = 37)", "result": "3 (8.1) n (%)"}, {"measurement": "TEAE: Dizziness", "setting": "Overall (N = 37)", "result": "1 (2.7) n (%)"}, {"measurement": "TEAE: Dysgeusia", "setting": "Overall (N = 37)", "result": "1 (2.7) n (%)"}, {"measurement": "TEAE: Dyspepsia", "setting": "Overall (N = 37)", "result": "1 (2.7) n (%)"}, {"measurement": "TEAE: Dyspnoea", "setting": "Overall (N = 37)", "result": "3 (8.1) n (%)"}, {"measurement": "TEAE: Dysuria", "setting": "Overall (N = 37)", "result": "2 (5.4) n (%)"}, {"measurement": "TEAE: Eructation", "setting": "Overall (N = 37)", "result": "1 (2.7) n (%)"}, {"measurement": "TEAE: Fall", "setting": "Overall (N = 37)", "result": "2 (5.4) n (%)"}, {"measurement": "TEAE: Fatigue", "setting": "Overall (N = 37)", "result": "6 (16.2) n (%)"}, {"measurement": "TEAE: Flatulence", "setting": "Overall (N = 37)", "result": "2 (5.4) n (%)"}, {"measurement": "TEAE: Fracture", "setting": "Overall (N = 37)", "result": "1 (2.7) n (%)"}, {"measurement": "TEAE: Fungal Infection", "setting": "Overall (N = 37)", "result": "1 (2.7) n (%)"}, {"measurement": "TEAE: Haematoma", "setting": "Overall (N = 37)", "result": "1 (2.7) n (%)"}, {"measurement": "TEAE: Hot Flush", "setting": "Overall (N = 37)", "result": "5 (13.5) n (%)"}, {"measurement": "TEAE: Hyperglycaemia", "setting": "Overall (N = 37)", "result": "1 (2.7) n (%)"}, {"measurement": "TEAE: Hyperhidrosis", "setting": "Overall (N = 37)", "result": "3 (8.1) n (%)"}, {"measurement": "TEAE: Hypokalaemia", "setting": "Overall (N = 37)", "result": "2 (5.4) n (%)"}, {"measurement": "TEAE: Hypotension", "setting": "Overall (N = 37)", "result": "1 (2.7) n (%)"}, {"measurement": "TEAE: Influenza Like Illness", "setting": "Overall (N = 37)", "result": "1 (2.7) n (%)"}, {"measurement": "TEAE: Insomnia", "setting": "Overall (N = 37)", "result": "3 (8.1) n (%)"}, {"measurement": "TEAE: Lower Respiratory Tract Congestion", "setting": "Overall (N = 37)", "result": "1 (2.7) n (%)"}, {"measurement": "TEAE: Lymphocyte Count Decreased", "setting": "Overall (N = 37)", "result": "1 (2.7) n (%)"}, {"measurement": "TEAE: Muscle Spasm", "setting": "Overall (N = 37)", "result": "1 (2.7) n (%)"}, {"measurement": "TEAE: Muscular Weakness", "setting": "Overall (N = 37)", "result": "2 (5.4) n (%)"}, {"measurement": "TEAE: Musculoskeletal Stiffness", "setting": "Overall (N = 37)", "result": "1 (2.7) n (%)"}, {"measurement": "TEAE: Nail Disorder", "setting": "Overall (N = 37)", "result": "1 (2.7) n (%)"}, {"measurement": "TEAE: Nasal Congestion", "setting": "Overall (N = 37)", "result": "1 (2.7) n (%)"}, {"measurement": "TEAE: Nausea", "setting": "Overall (N = 37)", "result": "7 (18.9) n (%)"}, {"measurement": "TEAE: Neutrophil Count Decreased", "setting": "Overall (N = 37)", "result": "6 (16.2) n (%)"}, {"measurement": "TEAE: Oedema Peripheral", "setting": "Overall (N = 37)", "result": "2 (5.4) n (%)"}, {"measurement": "TEAE: Ophthalmic Migraine", "setting": "Overall (N = 37)", "result": "1 (2.7) n (%)"}, {"measurement": "TEAE: Oral Pain", "setting": "Overall (N = 37)", "result": "1 (2.7) n (%)"}, {"measurement": "TEAE: Pain In Extremity", "setting": "Overall (N = 37)", "result": "1 (2.7) n (%)"}, {"measurement": "TEAE: Pharyngitis", "setting": "Overall (N = 37)", "result": "1 (2.7) n (%)"}, {"measurement": "TEAE: Platelet Count Decreased", "setting": "Overall (N = 37)", "result": "2 (5.4) n (%)"}, {"measurement": "TEAE: Pleural Effusion", "setting": "Overall (N = 37)", "result": "1 (2.7) n (%)"}, {"measurement": "TEAE: Pneumonia", "setting": "Overall (N = 37)", "result": "2 (5.4) n (%)"}, {"measurement": "TEAE: Productive Cough", "setting": "Overall (N = 37)", "result": "1 (2.7) n (%)"}, {"measurement": "TEAE: Rash Maculo-Papular", "setting": "Overall (N = 37)", "result": "2 (5.4) n (%)"}, {"measurement": "TEAE: Rhinitis Allergic", "setting": "Overall (N = 37)", "result": "1 (2.7) n (%)"}, {"measurement": "TEAE: Rib Fracture", "setting": "Overall (N = 37)", "result": "1 (2.7) n (%)"}, {"measurement": "TEAE: Seizure", "setting": "Overall (N = 37)", "result": "1 (2.7) n (%)"}, {"measurement": "TEAE: Sepsis", "setting": "Overall (N = 37)", "result": "1 (2.7) n (%)"}, {"measurement": "TEAE: Tremor", "setting": "Overall (N = 37)", "result": "2 (5.4) n (%)"}, {"measurement": "TEAE: Upper Respiratory Tract Infection", "setting": "Overall (N = 37)", "result": "3 (8.1) n (%)"}, {"measurement": "TEAE: Urinary Tract Infection", "setting": "Overall (N = 37)", "result": "2 (5.4) n (%)"}, {"measurement": "TEAE: Vaginal Haemorrhage", "setting": "Overall (N = 37)", "result": "1 (2.7) n (%)"}, {"measurement": "TEAE: Vomiting", "setting": "Overall (N = 37)", "result": "2 (5.4) n (%)"}, {"measurement": "related TEAE: Alopecia", "setting": "Overall (N = 37)", "result": "1 (2.7) n (%)"}, {"measurement": "related TEAE: Arthralgia", "setting": "Overall (N = 37)", "result": "1 (2.7) n (%)"}, {"measurement": "related TEAE: Constipation", "setting": "Overall (N = 37)", "result": "3 (8.1) n (%)"}, {"measurement": "related TEAE: Diarrhea", "setting": "Overall (N = 37)", "result": "3 (8.1) n (%)"}, {"measurement": "related TEAE: Dysgeusia", "setting": "Overall (N = 37)", "result": "1 (2.7) n (%)"}, {"measurement": "related TEAE: Eructation", "setting": "Overall (N = 37)", "result": "1 (2.7) n (%)"}, {"measurement": "related TEAE: Fatigue", "setting": "Overall (N = 37)", "result": "2 (5.4) n (%)"}, {"measurement": "related TEAE: Flatulence", "setting": "Overall (N = 37)", "result": "1 (2.7) n (%)"}, {"measurement": "related TEAE: Hyperhidrosis", "setting": "Overall (N = 37)", "result": "1 (2.7) n (%)"}, {"measurement": "related TEAE: Nail Disorder", "setting": "Overall (N = 37)", "result": "1 (2.7) n (%)"}, {"measurement": "related TEAE: Platelet Count Decreased", "setting": "Overall (N = 37)", "result": "1 (2.7) n (%)"}, {"measurement": "related TEAE: Tremor", "setting": "Overall (N = 37)", "result": "1 (2.7) n (%)"}, {"measurement": "related TEAE: Vomiting", "setting": "Overall (N = 37)", "result": "1 (2.7) n (%)"}, {"measurement": "Compound (1-g) related TEAEs of CTCAE grade >=3", "setting": "all cohorts, N = 37", "result": "no Grade≥3 TEAEs were considered as related to compound (1-g); also recorded: No data meets output criteria"}, {"measurement": "participants with TEAEs that led to dose interruption", "setting": "all cohorts, N = 37", "result": "Nine"}, {"measurement": "dose-related trend in incidence of related TEAEs", "setting": "between 100 mg and 600 mg", "result": "No dose-related trends were evident"}, {"measurement": "related TEAE: Hot Flush", "setting": "human, in vivo", "result": "5 (13.5) n (%)"}, {"measurement": "related TEAE: Nausea", "setting": "human, in vivo", "result": "5 (13.5) n (%)"}, {"measurement": "related TEAE: Neutrophil Count Decreased", "setting": "human, in vivo", "result": "4 (10.8) n (%)"}]}]}
